{"source": "patent EP4785945A1", "about": "“THERAPEUTIC AGENT FOR RHEUMATOID ARTHRITIS” (Teijin Pharma Limited, priority 2023, dated 2025)", "key": {"[1]": {"tested_on": "rheumatoid arthritis patients", "assay": "Clinical trial on rheumatoid arthritis patients: safety", "assay_type": "in vivo, humans", "protocol": "(§1) Compound 1 was orally administered at dosages of 10, 25, 75, or 175 mg once daily for seven days (double-blind study) to 32 rheumatoid arthritis patients (six patients for each dosage of Compound 1 administration, and two patients for each dosage of placebo administration).\n(§2) Endpoints included: items related to disease activity and pain (DAS28-CRP, ACR20, VAS scale pain score, and TJC) to represent efficacy; vital signs (blood pressure, pulse, body temperature, and respiratory rate), physical findings, electrocardiograms, hematological tests, blood biochemistry tests, and the severity and frequency of adverse events to represent safety; and changes in the plasma concentration of Compound 1 to represent pharmacokinetics (PK)."}, "[2]": {"tested_on": "mouse anti-collagen antibody-induced arthritis (CAIA) model", "assay": "Combination study with etanercept, Arthritis Score", "assay_type": "in vivo", "conditions": "Compound 1 alone, 50 mg/kg/day", "protocol": "The effect of combining Compound 1 with etanercept was measured using a mouse anti-collagen antibody-induced arthritis (CAIA) model. The effect was evaluated using the Arthritis Score. […] Compared to the control, the scores decreased by 64% when only Compound 1 was used, by 62% when only etanercept was used, and by 97% when Compound 1 and etanercept were used in combination."}, "[3]": {"tested_on": "rheumatoid arthritis patients", "assay": "Clinical trial on rheumatoid arthritis patients: efficacy (ACR20, DAS28-CRP, VAS scale pain score, TJC)", "assay_type": "in vivo, humans", "protocol": "as §1, §2\nDAS28-CRP was used to determine whether there was improvement or no improvement based on the differences between the values on Day 1 and Day 7 of administration, in accordance with the criteria shown in Table 1 (EULAR criteria).\nACR20 was used to determine whether there was an improvement based on the ACR20 on Day 1 and Day 7 of administration.\nThe percentage change in the VAS scale pain score is the percentage change in the score on Day 7 compared to the score on Day 1.\nThe percentage change in the TJC score is the percentage change in the value on Day 7 compared to the value on Day 1."}, "[4]": {"tested_on": "granulocyte macrophage colony-stimulating factor (GM-CSF)", "assay": "GM-CSF secretion by synovial cells stimulated with TNF-α and IL-1β", "assay_type": "cell-based", "conditions": "relative to baseline after TNF-α and IL-1β stimulation without Compound 1, read-out: suppression of GM-CSF secretion", "protocol": "(§3) The synovial cells used in the test were derived from rheumatoid arthritis patients. The synovial cells were stimulated with tumor necrosis factor-α (TNF-α) and interleukin-1β (IL-1β) at the time of the test, and the effect of Compound 1 was measured. […] Furthermore, with regard to matrix metalloproteinase-3 (MMP-3), which is a mediator involved in tissue destruction, relative to a baseline after TNF-α and IL-1β stimulation without any added Compound 1, Compound 1 suppressed secretion in a dosage-dependent manner, by 14% when 10 nM was added, 21% when 30 nM was added, 37% when 100 nM was added, 60% when 300 nM was added, and 63% when 1000 nM was added."}, "[5]": {"tested_on": "rat adjuvant-induced arthritis (AIA) model", "assay": "Combination study with methotrexate, Arthritis Score", "assay_type": "in vivo", "protocol": "The effect of combining Compound 1 with methotrexate was measured using a rat adjuvant-induced arthritis (AIA) model. The effect was evaluated using the Arthritis Score. […] Compared to the control, the scores decreased by 33% when only Compound 1 was used, by 59% when only methotrexate was used, and by 86% when Compound 1 and methotrexate were used in combination. On the other hand, in this study, there was no decrease in the number of bone marrow cells even when Compound 1 and methotrexate were used in combination."}, "synovial cells": {"tested_on": "synovial cells", "assay": "Proliferation of synovial cells stimulated with TNF-α and IL-1β", "assay_type": "cell-based", "conditions": "Synovial cell, relative to baseline after TNF-α and IL-1β stimulation without Compound 1, read-out: suppression of proliferation of synovial cells", "protocol": "as §3"}, "[6]": {"tested_on": "matrix metalloproteinase-3 (MMP-3)", "assay": "MMP-3 secretion by synovial cells stimulated with TNF-α and IL-1β", "assay_type": "cell-based", "conditions": "Synovial cell, relative to baseline after TNF-α and IL-1β stimulation without Compound 1, read-out: suppression of MMP-3 secretion", "protocol": "as §3"}, "rat AIA model": {"tested_on": "rat AIA model", "assay": "Combination study with tofacitinib, Arthritis Score", "assay_type": "in vivo", "conditions": "30 mg/kg/day", "protocol": "The effect of combining compound 1 with tofacitinib was measured using a rat AIA model. The effect was evaluated using the Arthritis Score."}, "[7]": {"assay": "Clinical trial on rheumatoid arthritis patients: pharmacokinetics (plasma concentration)", "assay_type": "in vivo, humans", "conditions": "human, Day 7 after administration", "protocol": "as §1, §2"}, "[8]": {"tested_on": "synovial cells and bone marrow cells", "assay_type": "in vitro ADME", "protocol": "Cultured synovial cells and bone marrow cells were used. Compound 1 was added, and the intracellular concentration in the synovial cells and bone marrow cells and the concentration in the culture medium were measured."}, "[9]": {"conditions": "package insert; cited from earlier work"}, "[10]": {"conditions": "Day 1 to Day 7 of administration and three-day follow-up (up to Day 10)"}, "[11]": {"conditions": "all administration groups (10 to 175 mg)"}, "[12]": {"conditions": "25 mg, 75 mg, and 175 mg administration groups, Day 7 compared to Day 1"}, "[13]": {"conditions": "75 mg administration group, Day 7 compared to Day 1"}}, "data": [{"smiles": "CC(C)Nc1nc([C@@H](C)O)cc2cnc(Nc3ccc(N4CCNCC4=O)cn3)nc12", "note": "[Compound 1, (R)-1-(6-((6-(1-hydroxyethyl)-8-(isopropylamino)pyrido[3,4-d]pyrimidin-2-yl)amino)pyridin-3-yl)piperazin-2-one]", "values": [{"measurement": "adverse events, cases (events)", "setting": "[1]; 10 mg administration group", "result": "two cases (five events)"}, {"measurement": "adverse events, cases (events)", "setting": "[1]; 25 mg administration group", "result": "two cases (three events)"}, {"measurement": "adverse events, cases (events)", "setting": "[1]; 75 mg administration group", "result": "two cases (three events)"}, {"measurement": "adverse events, cases (events)", "setting": "[1]; 175 mg administration group", "result": "one case (one event)"}, {"measurement": "neutropenia or decrease in neutrophil count", "setting": "[1]; [10]", "result": "no neutropenia or decrease in neutrophil count"}, {"measurement": "neutrophil count", "setting": "[1]; [10]", "result": "maintained a constant neutrophil count"}, {"measurement": "severe adverse events", "setting": "[1]; [11]", "result": "no severe adverse events"}, {"measurement": "severity of adverse events", "setting": "[1]; [11]", "result": "mild to moderate"}, {"measurement": "changes in vital signs, electrocardiograms, physical findings, hematological tests, or blood biochemistry tests", "setting": "[1]; any dosage (10, 25, 75, 175 mg once daily, seven days)", "result": "No significant changes"}, {"measurement": "decrease of Arthritis Score compared to the control", "setting": "[2]", "result": 64, "unit": "%"}, {"measurement": "percentages of subjects who showed improvement in ACR20, compared with placebo group", "setting": "[3]; 25 mg, 75 mg, and 175 mg administration groups, once daily oral, seven days", "result": "higher than in the placebo group"}, {"measurement": "percentages of subjects who showed improvement in DAS28-CRP, compared with placebo group", "setting": "[3]; 25 mg, 75 mg, and 175 mg administration groups, once daily oral, seven days, EULAR criteria", "result": "higher than in the placebo group"}, {"measurement": "decreases in the TJC scores, compared with placebo group", "setting": "[3]; [12]", "result": "higher than in the placebo group"}, {"measurement": "decreases in the VAS scale pain scores, compared with placebo group", "setting": "[3]; [12]", "result": "higher than in the placebo group"}, {"measurement": "percentage of subjects who showed improvement in ACR20", "setting": "[3]; 75 mg administration group, once daily oral, seven days", "result": 60, "unit": "%"}, {"measurement": "percentage of subjects who showed improvement in DAS28-CRP", "setting": "[3]; 75 mg administration group, once daily oral, seven days, EULAR criteria", "result": 80, "unit": "%"}, {"measurement": "percentage change in the TJC score", "setting": "[3]; [13]", "result": -40, "unit": "%"}, {"measurement": "percentage change in the VAS scale pain score", "setting": "[3]; [13]", "result": -40, "unit": "%"}, {"measurement": "inhibition at 0.008 µM", "setting": "[4]; 8 nM", "result": 17, "unit": "%"}, {"measurement": "inhibition at 0.04 µM", "setting": "[4]; 40 nM", "result": 25, "unit": "%"}, {"measurement": "inhibition at 0.2 µM", "setting": "[4]; 200 nM", "result": 48, "unit": "%"}, {"measurement": "inhibition at 1 µM", "setting": "[4]; 1000 nM", "result": 65, "unit": "%"}, {"measurement": "decrease of Arthritis Score compared to the control", "setting": "[5]; Compound 1 alone, 30 mg/kg/day", "result": 33, "unit": "%"}, {"measurement": "inhibition at 0.01 µM", "setting": "synovial cells; 10 nM", "result": 5, "unit": "%"}, {"measurement": "inhibition at 0.03 µM", "setting": "synovial cells; 30 nM", "result": 14, "unit": "%"}, {"measurement": "inhibition at 0.1 µM", "setting": "synovial cells; 100 nM", "result": 19, "unit": "%"}, {"measurement": "inhibition at 0.3 µM", "setting": "synovial cells; 300 nM", "result": 27, "unit": "%"}, {"measurement": "inhibition at 1 µM", "setting": "synovial cells; 1000 nM", "result": 35, "unit": "%"}, {"measurement": "inhibition at 0.01 µM", "setting": "[6]; 10 nM", "result": 14, "unit": "%"}, {"measurement": "inhibition at 0.03 µM", "setting": "[6]; 30 nM", "result": 21, "unit": "%"}, {"measurement": "inhibition at 0.1 µM", "setting": "[6]; 100 nM", "result": 37, "unit": "%"}, {"measurement": "inhibition at 0.3 µM", "setting": "[6]; 300 nM", "result": 60, "unit": "%"}, {"measurement": "inhibition at 1 µM", "setting": "[6]; 1000 nM", "result": 63, "unit": "%"}, {"measurement": "decrease of Arthritis Score compared to the control", "setting": "rat AIA model; Compound 1 alone", "result": 40, "unit": "%"}, {"measurement": "half-life at 168 h", "setting": "[7]; 10 mg once daily oral", "result": 12.9, "unit": "h"}, {"measurement": "half-life at 168 h", "setting": "[7]; 25 mg once daily oral", "result": 11.9, "unit": "h"}, {"measurement": "half-life at 168 h", "setting": "[7]; 75 mg once daily oral", "result": 14.6, "unit": "h"}, {"measurement": "half-life at 168 h", "setting": "[7]; 175 mg once daily oral", "result": 10.4, "unit": "h"}, {"measurement": "distribution ratio between synovial cells and bone marrow cells", "setting": "[8]", "result": "84:16"}]}, {"smiles": "CCN1CCN(Cc2ccc(Nc3ncc(F)c(-c4cc(F)c5nc(C)n(C(C)C)c5c4)n3)nc2)CC1", "note": "[abemaciclib]", "values": [{"measurement": "incidence of the side effect of neutropenia", "setting": "[9]", "result": 42.2, "unit": "%"}]}, {"smiles": "CN(Cc1cnc2nc(N)nc(N)c2n1)c1ccc(C(=O)N[C@@H](CCC(=O)O)C(=O)O)cc1", "note": "[methotrexate, reference compound]", "values": [{"measurement": "decrease of Arthritis Score compared to the control", "setting": "[5]; methotrexate alone, 0.075 mg/kg/day", "result": 59, "unit": "%"}]}, {"smiles": "C[C@@H]1CCN(C(=O)CC#N)C[C@@H]1N(C)c1ncnc2[nH]ccc12", "note": "[tofacitinib, reference compound]", "values": [{"measurement": "decrease of Arthritis Score compared to the control", "setting": "rat AIA model; tofacitinib alone", "result": 67, "unit": "%"}]}]}
